# Source: patent publication US9493468B2, “Antifungal 5,6-dihydro-4H-pyrrolo[1,2-a][1,4]benzo-diazepines and 6H-pyrrolo[1,2-a][1,4]benzodiazepines substituted with heterocyclic derivatives” (Janssen Pharmaceutica NV, priority 2011, dated 2016)
# Columns and labels:
# Format in all cases: cell-based
# Microsporum canis = assay: Antifungal activity in vitro, resazurin growth inhibition: Microsporum canis (B68128)
# Procedure: (§1) The standard susceptibility screen is performed in 96-well plates (U-bottom, Greiner Bio-One). Serial dilutions (2-fold or 4-fold) of 20 mM compound stock solutions are made in 100% DMSO, followed by an intermediate dilution step in water. These serial dilutions (10 μl) are then spotted onto test-plates that can be stored in the dark at 4° C. for a maximum period of 2 weeks. An adequate broad dose-range is included with 64 μM as the highest in-test concentration. The culture medium RPMI-1640 is supplemented with L-glutamine, 2% glucose and buffered with 3-(N-morpholino)-propanesulfonic acid (MOPS) at pH 7.0±0.1.
# (§2) The different fungal species/isolates (Table 3a) are cryopreserved and 1/1000 diluted in medium just prior to use. A standard inoculum of 200 μl containing 10^3 colony-forming unit (cfu) is then added to each well. A positive control (100% growth=fungal culture without antifungal) and a negative control (0% growth ═RPMI-MOPS medium) are included on each plate. Optimal incubation time and temperature are dependent on the fungal species and vary from 24 h for yeasts (37° C.) to one week or more for dermatophytes (27° C.). Inhibition of fungal growth is measured after adding 10 μl of 0.005% (w/v) resazurin (Sigma Aldrich) to each well, based on the principle that living cells convert the non-fluorescent blue resazurin into the pink and fluorescent resorufin, allowing fluorimetric reading (λex 550 nm and λem 590 nm) after an additional incubation period (‘resa’ time mentioned in Table 3a).
# [1] = tested on: Trichophyton mentagrophytes; assay: Antifungal activity in vitro, resazurin growth inhibition: Trichophyton mentagrophytes (B70554)
# Procedure: as §1, §2
# Trichophyton rubrum = assay: Antifungal activity in vitro, resazurin growth inhibition: Trichophyton rubrum (B68183)
# Procedure: as §1, §2
# Sporothrix schenkii = assay: Antifungal activity in vitro, resazurin growth inhibition: Sporothrix schenkii (B62482)
# Procedure: as §1, §2
# Aspergillus fumigatus = assay: Antifungal activity in vitro, resazurin growth inhibition: Aspergillus fumigatus (B42928)
# Procedure: as §1, §2
# Candida parapsilosis = assay: Antifungal activity in vitro, resazurin growth inhibition: Candida parapsilosis (B66126)
# Procedure: as §1, §2
# Cryptococcus neoformans = assay: Antifungal activity in vitro, resazurin growth inhibition: Cryptococcus neoformans (B66663)
# Procedure: as §1, §2
SMILES,"Inf. B: Microsporum canis B68128, pIC50 (Microsporum canis)","Inf. G: Trichophyton mentagrophytes B70554, pIC50 [1]","Inf. C: Trichophyton rubrum B68183, pIC50 (Trichophyton rubrum)","Inf. A: Sporothrix schenkii B62482, pIC50 (Sporothrix schenkii)","Inf. E: Aspergillus fumigatus B42928, pIC50 (Aspergillus fumigatus)","Inf. D: Candida parapsilosis B66126, pIC50 (Candida parapsilosis)","Inf. F: Cryptococcus neoformans B66663, pIC50 (Cryptococcus neoformans)"
Cl.Fc1cccc2c1CNC(c1ccc(C(F)(F)F)nc1)c1cccn1-2 (racemic) [Compound 17],4.46,<4.19,4.71,<4.19,<4.19,<4.19,4.23
Cc1cccc2c1CNC(c1ccc(C(F)(F)F)nc1)c1cccn1-2.Cl (racemic) [Compound 18],5.05,4.62,5.52,<4.19,<4.19,<4.19,<4.19
Cl.FC(F)(F)c1ccc(C2NCc3c(Cl)cc(Cl)cc3-n3cccc32)cn1 (racemic) [Compound 19],4.95,4.57,5.65,<4.19,<4.19,<4.19,5.02
Br.Clc1ccc2c(c1)-n1cccc1C(c1ccncc1)NC2 (racemic) [Compound 23],4.72,4.39,5.00,<4.19,<4.19,<4.19,4.57
Br.Clc1cccc2c1-n1cccc1C(c1ccncc1)NC2 (racemic) [Compound 24],4.57,<4.19,4.74,<4.19,<4.19,<4.19,<4.19
Cc1ncc(C2NCc3c(Cl)cccc3-n3cccc32)cn1.Cl (racemic) [Compound 25],4.43,<4.19,4.19,<4.19,<4.19,<4.19,<4.19
Cl.FC(F)(F)c1ncc(C2NCc3c(Cl)cccc3-n3cccc32)cn1 (racemic) [Compound 26],4.92,4.44,5.10,<4.19,<4.19,<4.19,<4.19
Cc1ccc(Cl)c2c1-n1cccc1C(c1cnc(C(F)(F)F)nc1)NC2.Cl (racemic) [Compound 27],<4.90,<4.90,<4.90,<4.90,<4.90,<4.90,<4.90
Cl.FC(F)(F)c1ccc(C2NCc3c(Cl)cccc3-n3cccc32)nn1 (racemic) [Compound 28],4.29,4.28,4.43,<4.19,<4.19,<4.19,<4.19
Cl.c1ccc2c(c1)CNC(c1cc3ccccc3o1)c1cccn1-2 (racemic) [Compound 29],5.30,5.30,5.70,<4.19,<4.19,<4.19,4.80
Cl.Clc1cc(Cl)c2c(c1)-n1cccc1C(c1cc3ccccc3o1)NC2 (racemic) [Compound 31],5.59,4.87,5.31,<4.19,<4.19,<4.19,<4.19
Cc1cccc2c1CNC(c1cc3ccccc3o1)c1cccn1-2.Cl (racemic) [Compound 32],5.70,5.70,6.10,4.35,<4.19,<4.19,4.39
Cc1cccc2c1-n1cccc1C(c1cc3ccccc3o1)NC2.Cl (racemic) [Compound 33],5.22,4.98,4.49,<4.19,<4.19,<4.19,4.38
Cl.Clc1ccc2oc(C3NCc4c(Cl)cccc4-n4cccc43)cc2c1 (racemic) [Compound 35],5.70,5.70,6.07,<4.19,<4.19,<4.19,<4.19
Cc1cccc2oc(C3NCc4c(Cl)cccc4-n4cccc43)cc12.Cl (racemic) [Compound 36],5.19,5.21,5.10,<4.19,<4.19,<4.19,<4.19
Cc1cccc2oc(C3NCc4ccc(Cl)cc4-n4cccc43)cc12.Cl (racemic) [Compound 37],4.38,4.41,5.31,<4.19,<4.19,<4.19,5.39
Cc1ccc2cc(C3NCc4ccccc4-n4cccc43)oc2c1.Cl (racemic) [Compound 38],5.15,5.22,5.22,4.40,4.41,<4.19,<4.19
Cc1ccc2cc(C3NCc4c(Cl)cccc4-n4cccc43)oc2c1.Cl (racemic) [Compound 39],5.52,5.15,5.15,5.52,5.52,<4.19,<4.19
Cc1ccc2cc(C3NCc4c(C)cccc4-n4cccc43)oc2c1.Cl (racemic) [Compound 40],5.52,4.47,4.77,<4.19,<4.19,<4.19,<4.19
Cc1ccc2cc(C3NCc4c(Cl)cc(Cl)cc4-n4cccc43)oc2c1.Cl (racemic) [Compound 41],<4.19,<4.19,4.80,<4.19,<4.19,<4.19,<4.19
COc1cccc2cc(C3NCc4ccc(Cl)cc4-n4cccc43)oc12.Cl (racemic) [Compound 42],4.19,4.49,5.06,<4.19,<4.19,<4.19,4.89
